Data set [1] is described as follows: Selectivity index, ratio of IC50 for rat L6 cells to IC50 for chloroquine and pyrimethamine-resistant Plasmodium falciparum K1. The data set is classed as toxicity, cell-based. To be noted: L6 cells (versus Plasmodium falciparum K1), read-out: Ratio IC50.
The next data set has as its system L6. Kind of data set: Cytotoxicity against rat L6 cells. The data set is classed as cell-based.
Data set [2] relates to Trypanosoma brucei rhodesiense. Description: Antitrypanosomal activity against Trypanosoma brucei rhodesiense STIB900 bloodstream forms after 72 hrs by serial dilution Alamar blue assay. Type of data set: functional, organism-based. To be noted: STIB900, 72 h. On the technique in general: Alamar Blue is a resazurin reagent that responds to reducing activity.
For the next data set, the system named is Plasmodium falciparum. Description: Antiplasmodial activity against chloroquine and pyrimethamine-resistant Plasmodium falciparum K1 assessed as [3H]hypoxanthine incorporation after 48 hrs by liquid scintillation counter. Type of data set: functional, organism-based.
Data set [3] is described as follows: Selectivity index, ratio of IC50 for rat L6 cells to IC50 for Trypanosoma brucei rhodesiense STIB900. The data set is classed as toxicity, cell-based. The following applies: L6 cells (versus Trypanosoma brucei rhodesiense STIB900), read-out: Ratio IC50.
Data set [4] concerns Plasmodium berghei. Description: Antimalarial activity against Plasmodium berghei ANKA infected in albino mouse assessed as prolongation of survival time at 30 to 50 mg/kg, ip administered as single dose post infection (reference value: 6.7 days). The following applies: dose mg/kg 30-50; route intraperitoneal. Type of data set: functional.
Data set [5] relates to Plasmodium berghei. Kind of data set: Antimalarial activity against Plasmodium berghei ANKA infected in albino mouse assessed as inhibition of parasitemia at 30 to 50 mg/kg, ip administered as single dose post-infection measured after 24 hrs by Giemsa staining-based microscopy. Type of data set: functional. The following applies: dose mg/kg 30-50; route intraperitoneal.
The subject of data set [6] is Trypanosoma brucei brucei. Kind of data set: […] activity against Trypanosoma brucei brucei STIB 795 infected in NMRI mouse assessed as reduction in parasitemia compound administered on day 3 and day 6 post infection measured on day 10. Type of data set: functional, organism-based.
The subject of data set [7] is Trypanosoma brucei brucei. Kind of data set: […] activity against Trypanosoma brucei brucei STIB 795 infected in NMRI mouse assessed as reduction in parasitemia compound administered on day 3 and day 6 post infection measured after 24 hrs. Type of data set: functional, organism-based.

The source made the active and inactive calls. No cut-off for these calls is given here.

Take `CN1CCN(CCCC(=O)OC2CC3(N(C)C)CC(c4ccccc4)C2C(c2ccccc2)C3)CC1` (racemic): the selectivity ratio in data set [1] was 82.7; in [3] it was 248. The IC50 in the data set with L6 was 19.9 µM; in data set [2], 0.08 µM; in the data set on Plasmodium falciparum it was 0.24 µM.

With `CN1CCN(CCC(=O)NC2CC3(N4CCN(C)CC4)CC(c4ccccc4)C2C(c2ccccc2)C3)CC1` (racemic), the selectivity ratio in [1] is 123; in data set [3], 20.6. The concentration for half-maximal inhibition (IC50) in the data set on L6 came to 67.9 µM; in [2], 3.3 µM; in the data set with Plasmodium falciparum, 0.55 µM.

`c1ccc(C2CC3(N4CCCCC4)CCN(CCCN4CCCCC4)C2C(c2ccccc2)C3)cc1` (stereo not drawn): inhibition in data set [2] was half-maximal at 18.4 µM (IC50). Also, the selectivity ratio in data set [3] amounted to 7.5.

For `CN1CCN(CCN2CCC3(N4CCCCC4)CC(c4ccccc4)C2C(c2ccccc2)C3)CC1` (racemic), the selectivity ratio came to 424 in data set [1] and 2.91 in data set [3]. Moreover, the IC50 with L6 was found to be 127 µM; in data set [2], 43.7 µM; in the data set with Plasmodium falciparum, 0.3 µM.

As to `CN1CCN(CCN2CCC3(N4CCCC4)CC(c4ccccc4)C2C(c2ccccc2)C3)CC1` (racemic), the selectivity ratio in data set [1] amounted to 2190; in data set [3], 7.93. In addition, the IC50 with L6 came to 50.3 µM; in data set [2] it was 6.35 µM; in the data set with Plasmodium falciparum, 0.023 µM. Moreover, in the data set with Plasmodium berghei [4], the MST amounted to 8.3 days. In the data set with Plasmodium berghei [5], the “inhibition (INH)” value is given as 39%.

With `CN1CCN(CCC(=O)OC2CC3(N4CCCCC4)CC(c4ccccc4)C2C(c2ccccc2)C3)CC1` (racemic), the selectivity ratio was determined as 392 in data set [1] and 271 in data set [3]. Also, the outcome in data set [6] and in data set [7] was Active. Besides, the figures for the half-maximal inhibitory concentration (IC50) (in the data set on L6; in data set [2]; in the data set on Plasmodium falciparum) were 23.5 µM, 0.087 µM and 0.06 µM, respectively.

Take `CN1CCN(C23CCNC(C(c4ccccc4)C2)C(c2ccccc2)C3)CC1` (racemic): the selectivity ratio in [1] came to 64.6; in data set [3], 255. The values for the IC50 (in the data set on L6; in [2]; in the data set with Plasmodium falciparum) were 96.9 µM, 0.38 µM and 1.5 µM, respectively.

Consider `CN1CCN(CCCN2CCC3(N4CCN(C)CC4)CC(c4ccccc4)C2C(c2ccccc2)C3)CC1` (racemic), for which the results for the selectivity ratio in data set [1] and in data set [3] were 191 and 7.16, respectively. Besides, the half-inhibitory concentration (IC50) was determined as 47.8 µM in the data set on L6, 6.67 µM in [2] and 0.25 µM in the data set on Plasmodium falciparum.

Consider `CN1CCN(CCCC(=O)OC2CC3(N4CCCC4)CC(c4ccccc4)C2C(c2ccccc2)C3)CC1` (racemic), for which the selectivity ratio in data set [1] was 84.7; in data set [3] it was 67.7. Moreover, the 50% inhibitory concentration (IC50) with L6 came out at 10.2 µM; in [2], 0.15 µM; in the data set on Plasmodium falciparum it was 0.12 µM.

Take `CN1CCN(CCN2CCC3(N(C)C)CC(c4ccccc4)C2C(c2ccccc2)C3)CC1` (racemic): the results for the selectivity ratio in data set [1] and in [3] were 135 and 5.19, respectively. For the same compound, the IC50 is 70.3 µM in the data set with L6, 13.5 µM in [2] and 0.52 µM in the data set with Plasmodium falciparum.

In the case of `CN1CCN(CCCN2CCC3(N(C)C)CC(c4ccccc4)C2C(c2ccccc2)C3)CC1` (racemic), the selectivity ratio in data set [1] is 107; in [3] it was 4.74. Moreover, the IC50 in the data set with L6 was 54.5 µM; in data set [2] it was 11.5 µM; in the data set with Plasmodium falciparum it was 0.51 µM.

Take `CN1CCN(CCCN2CCC3(N4CCCCC4)CC(c4ccccc4)C2C(c2ccccc2)C3)CC1` (racemic): the results for the selectivity ratio in data set [1] and in data set [3] were 568 and 3.55, respectively. The 50% inhibitory concentration (IC50) turned out to be 62.5 µM in the data set with L6, 17.6 µM in data set [2] and 0.11 µM in the data set on Plasmodium falciparum.

Take `CCN(CC)CCC(=O)OC1CC2(N(C)C)CC(c3ccccc3)C1C(c1ccccc1)C2` (stereo not drawn): the selectivity ratio is 54.9 in data set [1] and 215 in data set [3].

On to `CN1CCN(CCC(=O)OC2CC3(N(C)C)CC(c4ccccc4)C2C(c2ccccc2)C3)CC1` (racemic), for which the selectivity ratio was found to be 67.7 in data set [1] and 148 in data set [3]. In addition, the IC50 with L6 was determined as 31.1 µM; in [2], 0.21 µM; in the data set on Plasmodium falciparum it was 0.46 µM.

For `CN1CCN(CCCN2CCC3(N4CCCC4)CC(c4ccccc4)C2C(c2ccccc2)C3)CC1` (racemic), the selectivity ratio amounted to 102 in data set [1] and 3.93 in data set [3]. In addition, the IC50 in the data set on L6 is 27.4 µM; in data set [2], 6.99 µM; in the data set on Plasmodium falciparum, 0.27 µM. In addition, the MST in the data set on Plasmodium berghei [4] came to 7.7 days. Moreover, in the data set on Plasmodium berghei [5], the “inhibition (INH)” value came out at 39%.

`C[C@@H]1CC[C@H]2[C@@H](C)C(=O)O[C@@H]3O[C@@]4(C)CC[C@@H]1[C@]32OO4` [ARTEMISININ]: the IC50 in the data set on Plasmodium falciparum was 0.0064 µM.

Compound `Nc1nc(N)nc(Nc2ccc([As]3SCC(CO)S3)cc2)n1` (stereo not drawn) [MELARSOPROL] gave an IC50 in [2] of 0.009 µM. The selectivity ratio in data set [3] worked out at 1940.

`CN1CCN(CC(=O)NC2CC3(N4CCN(C)CC4)CC(c4ccccc4)C2C(c2ccccc2)C3)CC1` (racemic): the results for the selectivity ratio in data set [1] and in data set [3] were 67.9 and 20.4, respectively. For the same compound, the half-inhibitory concentration (IC50) turned out to be 42.1 µM with L6, 2.06 µM in [2] and 0.62 µM in the data set with Plasmodium falciparum.

For the compound `CN1CCN(CCC(=O)OC2CC3(N4CCCC4)CC(c4ccccc4)C2C(c2ccccc2)C3)CC1` (racemic), the selectivity ratio is 82 in data set [1] and 47.4 in data set [3]. Moreover, the half-maximal inhibitory concentration (IC50) in the data set on L6 amounted to 21.3 µM; in [2], 0.45 µM; in the data set on Plasmodium falciparum it was 0.26 µM.

For `CN1CCN(CCCC(=O)OC2CC3(N4CCCCC4)CC(c4ccccc4)C2C(c2ccccc2)C3)CC1` (racemic), the selectivity ratio in [1] is 446; in [3], 139. Also, the concentration for half-maximal inhibition (IC50) with L6 turned out to be 22.3 µM; in data set [2], 0.16 µM; with Plasmodium falciparum it was 0.05 µM.

Consider `CN1CCN(CCC(=O)N2CCC3(N4CCN(C)CC4)CC(c4ccccc4)C2C(c2ccccc2)C3)CC1` (racemic), for which the selectivity ratio in data set [1] amounted to 82.5; in [3], 44.5. Moreover, the IC50 was found to be 161 µM in the data set with L6, 3.62 µM in [2] and 1.95 µM in the data set on Plasmodium falciparum.

As a reminder, the IC50 is the point on the concentration scale where inhibition reaches its midpoint.

The record behind these values is ChEMBL document CHEMBL1926546, “New N-methylpiperazinyl derivatives of bicyclic antiprotozoal compounds” (Eur J Med Chem, 2012).
